According to patent US5556744A, “Methods and compositions for diagnosing and treating certain HIV infected patients” (The Trustees of the University of Pennsylvania, priority 1994, dated 1996):

Tests used:
[1] = tested on: maternal HIV+ sera (antibodies); test: RIA / ELISA binding of maternal HIV+ sera to gp120 and gp41 peptides (Example 3); design: species or system human
Method in brief: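 Maternal sera, diluted 1:50 and 1:500, were bound overnight at 4°C to peptides immobilized at 10 μg/ml (pH 9.6 carbonate) and blocked with 1% BSA. Read-out was ¹²⁵I-labelled anti-human IgG counts or HRP-TMB OD450. Signal with peptide minus without was expressed relative to seronegative serum.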

[2] = tested on: maternal sera (antibodies); test: ELISA peptide-binding of maternal sera (Example 6); design: species or system human
Method in brief: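 HIV-1 envelope peptides averaging 16 amino acids, covering external and transmembrane glycoprotein, were probed by ELISA. Third-trimester maternal sera, classed as transmitter or non-transmitter by child diagnosis, were each run on at least 40 peptides. Values give percent of sera binding a peptide.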

SSGRMIMEKGEIKNCSFNIST [Peptide 59]
Binding of maternal sera to peptide (in words) ([1]; Example 3): No binding
Binding of maternal HIV+ serum to peptide (sera/NHS ratio) ([1]; Serum No. 1, Non-Transmission Group): - (specific OD450 or cpm of sera sample binding to peptide divided by the specific OD450 or cpm of NHS sample binding to peptide, which value is less than 2)
Binding of maternal HIV+ serum to peptide (sera/NHS ratio) ([1]; Serum No. 2, Non-Transmission Group): - (specific OD450 or cpm of sera sample binding to peptide divided by the specific OD450 or cpm of NHS sample binding to peptide, which value is less than 2)
Binding of maternal HIV+ serum to peptide (sera/NHS ratio) ([1]; Serum No. 3, Non-Transmission Group): - (specific OD450 or cpm of sera sample binding to peptide divided by the specific OD450 or cpm of NHS sample binding to peptide, which value is less than 2)
Binding of maternal HIV+ serum to peptide (sera/NHS ratio) ([1]; Serum No. 4, Transmission Group): - (specific OD450 or cpm of sera sample binding to peptide divided by the specific OD450 or cpm of NHS sample binding to peptide, which value is less than 2)
Binding of maternal HIV+ serum to peptide (sera/NHS ratio) ([1]; Serum No. 5, Transmission Group): - (specific OD450 or cpm of sera sample binding to peptide divided by the specific OD450 or cpm of NHS sample binding to peptide, which value is less than 2)
Binding of maternal HIV+ serum to peptide (sera/NHS ratio) ([1]; Serum No. 6, Non-Transmission Group): - (specific OD450 or cpm of sera sample binding to peptide divided by the specific OD450 or cpm of NHS sample binding to peptide, which value is less than 2)
Binding of maternal HIV+ serum to peptide (sera/NHS ratio) ([1]; Serum No. 7, Non-Transmission Group): - (specific OD450 or cpm of sera sample binding to peptide divided by the specific OD450 or cpm of NHS sample binding to peptide, which value is less than 2)
Binding of maternal HIV+ serum to peptide (sera/NHS ratio) ([1]; Serum No. 8, Non-Transmission Group): - (specific OD450 or cpm of sera sample binding to peptide divided by the specific OD450 or cpm of NHS sample binding to peptide, which value is less than 2)
Binding of maternal HIV+ serum to peptide (sera/NHS ratio) ([1]; Serum No. 9, Non-Transmission Group): - (specific OD450 or cpm of sera sample binding to peptide divided by the specific OD450 or cpm of NHS sample binding to peptide, which value is less than 2)
Binding of maternal HIV+ serum to peptide (sera/NHS ratio) ([1]; Serum No. 10, Transmission Group): - (specific OD450 or cpm of sera sample binding to peptide divided by the specific OD450 or cpm of NHS sample binding to peptide, which value is less than 2)
Binding of maternal HIV+ serum to peptide (sera/NHS ratio) ([1]; Serum No. 11, Non-Transmission Group): - (specific OD450 or cpm of sera sample binding to peptide divided by the specific OD450 or cpm of NHS sample binding to peptide, which value is less than 2)
Binding of maternal HIV+ serum to peptide (sera/NHS ratio) ([1]; Serum No. 12, Non-Transmission Group): - (specific OD450 or cpm of sera sample binding to peptide divided by the specific OD450 or cpm of NHS sample binding to peptide, which value is less than 2)
Binding of maternal HIV+ serum to peptide (sera/NHS ratio) ([1]; Serum No. 13, Transmission Group): - (specific OD450 or cpm of sera sample binding to peptide divided by the specific OD450 or cpm of NHS sample binding to peptide, which value is less than 2)
Binding of maternal HIV+ serum to peptide (sera/NHS ratio) ([1]; Serum No. 14, Transmission Group): - (specific OD450 or cpm of sera sample binding to peptide divided by the specific OD450 or cpm of NHS sample binding to peptide, which value is less than 2)
Binding of maternal HIV+ serum to peptide (sera/NHS ratio) ([1]; Serum No. 15, Transmission Group): - (specific OD450 or cpm of sera sample binding to peptide divided by the specific OD450 or cpm of NHS sample binding to peptide, which value is less than 2)
Binding of maternal HIV+ serum to peptide (sera/NHS ratio) ([1]; Serum No. 16, Non-Transmission Group): - (specific OD450 or cpm of sera sample binding to peptide divided by the specific OD450 or cpm of NHS sample binding to peptide, which value is less than 2)
Binding of maternal HIV+ serum to peptide (sera/NHS ratio) ([1]; Serum No. 17, Non-Transmission Group): - (specific OD450 or cpm of sera sample binding to peptide divided by the specific OD450 or cpm of NHS sample binding to peptide, which value is less than 2)
Binding of maternal HIV+ serum to peptide (sera/NHS ratio) ([1]; Serum No. 18, Non-Transmission Group): - (specific OD450 or cpm of sera sample binding to peptide divided by the specific OD450 or cpm of NHS sample binding to peptide, which value is less than 2)
Binding of maternal HIV+ serum to peptide (sera/NHS ratio) ([1]; Serum No. 19, Transmission Group): - (specific OD450 or cpm of sera sample binding to peptide divided by the specific OD450 or cpm of NHS sample binding to peptide, which value is less than 2)
Binding of maternal HIV+ serum to peptide (sera/NHS ratio) ([1]; Serum No. 20, Non-Transmission Group): - (specific OD450 or cpm of sera sample binding to peptide divided by the specific OD450 or cpm of NHS sample binding to peptide, which value is less than 2)
Number of Non-Transmitters which bound to peptide ([2]; Non-Transmitters, N = 12): 0
Percent of Non-Transmitters which bound to peptide ([2]; Non-Transmitters, N = 12): 0%
Number of Transmitters which bound to peptide ([2]; Transmitters, N = 4): 0
Percent of Transmitters which bound to peptide ([2]; Transmitters, N = 4): 0%
